Patent publication US20050020544A1, “Bicyclic CB2 cannabinoid receptor ligands” (priority 2002, published 2005)
pIC50: −log10 of the molar value. Where two headings read alike, the source gives them in different places.

How the values were obtained:
human CB1 receptor = target: T1, human CB1 receptor (Homo sapiens, UniProt P21554); test: biochemical; assay type: binding; conditions: displacement of [3H]CP55940, hCB1 HEK-293 membranes; read-out: CB1 IC50
T1 construct: purchased Perkin Elmer/NEN; host or cells: HEK-293 cells, stably transfected (membranes)
Protocol: (§1) In the present invention, binding affinity is represented by the IC50 value, namely the concentration of a test compound that will displace 50% of a radiolabeled agonist from the CB receptors. […] Preferably these ratios will be obtained for human CB1 and CB2 receptors. The selectivity toward CB2, denoted CB2/CB1 affinity, is calculated as the IC50 value obtained by the test compound for the displacement of the CB1 specific radioligand divided by the IC50 value obtained for the displacement of the CB2 specific radioligand, i.e. the IC50 CB1/IC50 CB2.
The CB1 binding assays were performed by testing the ability of the new compounds to displace [^3H]CP55940 from the CB1 receptor on membranes derived from hCB1 stably transfected HEK-293 cells (Perkin Elmer/NEN). Membranes were diluted in the assay buffer (50 mM Tris-HCl, 2.5 mM EDTA, 5 mM MgCl2, 1 mg/ml BSA, pH=7.4) to 500 μg protein/ml. 50 μl of diluted membranes (25 μg) were incubated with [^3H]CP55940 in the presence or absence of the bicyclic test compounds in a total volume of 0.5 ml. Tested compounds were dissolved in DMSO and diluted in the assay buffer to a final concentration of 0.1% solvent. Control samples were added with identical amount of vehicle. Non-specific binding was measured by the addition of 10 μM of WIN 55212-2. Following 1.5 hours incubation at 30° C. reactions were filtered through Whatman 934A/H filters (presoaked with 0.1% Polyethylenimine (PEI)).
(§2) Binding to CB1 is measured by competitive inhibition of [^3H]CP55940 in HEK-293 cells stably transfected with the human CB1 receptor gene. Binding to CB2 is measured by competitive inhibition of [^3H]WIN55212-2 in CHO cells stably transfected with the human CB2 receptor gene.

human CB2 receptor = human CB2 receptor (Homo sapiens, UniProt P34972); test: biochemical; assay type: binding; parameters: purchased Perkin Elmer/NEN; host or cells: CHO cells, stably transfected (membranes); conditions: for CB2/CB1 affinity ratio: IC50 CB1/IC50 CB2; for pIC50: displacement of [3H]WIN 55212-2, hCB2 CHO membranes
Protocol: as §1
The affinities of the novel bicyclic analogs to the CB2 receptor were determined by their ability to displace [^3H]WIN 55212-2 from the receptor in membranes derived from hCB2 stably transfected CHO cells (Perkin Elmer/NEN). Membranes were diluted in assay buffer (10 mM HEPES, 1 mM MgCl2, 1 mM EDTA, 0.3 mg/ml BSA, pH=7.4) to 500 μg protein/ml. 50 μl of diluted membranes (25 μg) were incubated with 0.8 nM of [^3H]WIN 55212-2 in the presence or absence of several concentrations of the bicyclic test compounds in a total volume of 1 ml. Tested compounds were dissolved and diluted as previously described for the hCB1 assay. Non-specific binding was measured by the addition of 10 μM CP 55940. Following 40 minutes incubation at 30° C. reactions were filtered as previously described. Filters for all binding assays were counted in a β-counter and log of analog concentration versus % of binding was plotted. IC50 values were extrapolated from this plot.
as §2

Male Sprague Dawley rats = test: Inflammatory pain: carrageenan paw edema in rats, thermal and mechanical stimuli; assay type: in vivo, rat; conditions: for ΔForce (tactile stimulus) / ΔLT (thermal stimulus): 10 mg/kg i.p., three hours; for analgesic activity of the antagonists by themselves: 5 mg/kg i.p.
Protocol: Male Sprague Dawley rats (200 g average body weight, Harlan, Israel) are transiently sedated by placement on dry ice for the duration of the injections. […] Before induction of inflammatory pain and three hours after injection, the animals reactions to pain stimuli were tested in two systems. The first stimulus was thermal and assessed by the Plantar Test according to Hargreaves, using Ugo Basile Model 7370. The scale was set to an intensity of 50 arbitrary units. The latency time till the animal lift a paw as a reaction to the thermal stimulus was recorded for both the inflamed and non-inflamed hind paws. The second stimulus was mechanical (tactile) and assessed using a Dynamic Plantar Sesthesiomether (Ugo Basile Model 73400-002).
The results are measured as the differences between the two hind paws at time 0 and 3 hours both as ALT, for the latency time in the thermal part of the study, and as ΔForce, for the mechanical part of the study.

Female Balb/c mice = tested on: Female Balb/c mice
Protocol: The purpose of this study is to test in vivo the anti-inflammatory activity of the compounds in paw edema induced by injection of 1% carrageenan in the animal hind paw. Female Balb/c mice (20 g average body weight, Harlan, Israel) are anesthetized with a combination of xylazine and pentobarbitone diluted in sterile saline, 15 and 6 mg/kg i.p. respectively. Anesthetized mice are injected subcutaneously, in the subplantar region of one (right) paw with 0.05 ml of 1% w/v Carrageenan in sterile water. […] The test compounds, including known anti-inflammatory controls, are dissolved in CREMOPHOR EL®:ethanol and further diluted 1:20 or 1:50 in sterile saline prior to i.p. injection that takes place immediately before the carrageenan injection. Three hours after injection the animals are resedated following the previously described procedure. Paw thickness is measured using a dial thickness gauge (Spring-dial, constant low pressure gauge, Mitutoyo, TG/L-1, 0.01 mm) and paw volume is measured using a plethysmometer (model #7150, Ugo Basile, Italy). Paw Edema is expressed as the difference between the right treated and the left untreated paws of the same animal, either as Δ Paw Volume (ΔPV) in millimeters cube or as Δ Paw Thickness (ΔPT) in millimeters. Each group comprises at least 10 animals. […] At the end of the study, animals are euthanized with an i.p. injection of 100 mg/kg pentobarbitone.
The differences among various treatment groups are analyzed by analysis of variance (ANOVA) followed by post-hoc Fisher test. A value of p<0.05 is considered to be statistically significant.
For sake of comparison, known anti-inflammatory drugs such as Celecoxib and Dexamethasone yield respectively in the range of relevant doses 7% and 26% reduction in paw thickness at 0.1 mg/kg, 16% and 31% at 0.25 mg/kg and 24% and 33% at 0.5 mg/kg. […] It should be kept in mind that these commercially available drugs display serious side effects that prevent chronic uses without complementary protective medication.

ICR male mice = test: Tail flick model for acute peripheral pain, i.p.; assay type: in vivo, mouse
Protocol: ICR male mice (20-30 g average body weight, Harlan, Israel) were injected i.p. at the volume dose of 5 ml/kg. Each treatment group contained at least 6 animals. Morphine HCl was used as positive control at the final dose of 5 mg/kg. Its vehicle, saline, was also included as control. The test compounds were dissolved in CREMOPHOR EL®:ethanol and diluted 1:20 in saline prior to injection, this second type of vehicle was also included as negative control. The final dose injected varied from 0.1 to 10 mg/kg. At predetermined time points after treatment injection, the animals were placed in the tail flick system (Socrel, model DS 20). Animals were gently held while their tails were located above the photoelectric cell. The tails were then illuminated (21V) at 2 cm from the distal tip and the latency time, measured in seconds, was recorded in duplicates. At the end of the study, the animals were euthanized by i.p. injection of 100 mg/kg sodium pentobarbitone.
Two parameters were used to analyze the results, the latency time and the % of animals showing analgesia. […] The results in both cases are expressed as mean±SE. The differences between the latency times or the % of animals showing analgesia among various treatment groups was analyzed by analysis of variance (ANOVA) followed by post-hoc Tukey's test (for latency) or Fisher's exact test (for % animals). A value of p<0.05 is considered to be statistically significant.

[1] = 10 mg/kg i.p., 330 minutes (five and a half hours)

T1 sequence (P21554 whole entry): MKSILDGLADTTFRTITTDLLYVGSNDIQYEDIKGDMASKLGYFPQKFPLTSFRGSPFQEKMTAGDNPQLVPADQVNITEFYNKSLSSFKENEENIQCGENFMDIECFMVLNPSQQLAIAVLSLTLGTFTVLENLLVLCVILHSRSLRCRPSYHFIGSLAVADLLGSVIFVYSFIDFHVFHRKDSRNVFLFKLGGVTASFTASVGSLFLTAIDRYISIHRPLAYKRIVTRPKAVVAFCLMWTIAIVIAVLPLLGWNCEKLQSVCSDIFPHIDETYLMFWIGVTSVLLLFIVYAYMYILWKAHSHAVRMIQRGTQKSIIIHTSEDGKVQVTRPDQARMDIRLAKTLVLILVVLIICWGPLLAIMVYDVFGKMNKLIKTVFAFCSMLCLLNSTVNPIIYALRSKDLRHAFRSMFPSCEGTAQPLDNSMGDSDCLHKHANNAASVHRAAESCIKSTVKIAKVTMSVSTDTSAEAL
Sequence of human CB2 receptor (P34972 whole entry): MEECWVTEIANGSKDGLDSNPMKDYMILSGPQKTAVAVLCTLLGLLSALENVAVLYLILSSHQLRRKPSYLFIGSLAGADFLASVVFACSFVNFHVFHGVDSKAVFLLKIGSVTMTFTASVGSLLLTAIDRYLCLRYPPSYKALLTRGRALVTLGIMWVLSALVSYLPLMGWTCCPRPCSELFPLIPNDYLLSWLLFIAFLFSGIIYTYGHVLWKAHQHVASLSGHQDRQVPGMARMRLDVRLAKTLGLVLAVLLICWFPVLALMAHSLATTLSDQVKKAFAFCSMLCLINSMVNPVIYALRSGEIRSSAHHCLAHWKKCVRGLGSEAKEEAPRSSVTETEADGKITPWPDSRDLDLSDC

Row | Compound | pIC50 (human CB1 receptor) | CB2/CB1 affinity ratio (human CB2 receptor) | pIC50 (human CB2 receptor) | also measured
1 | C#CCCCCC(C)(C)c1cc(O)c(C2C=C(C)C3CC2C3(C)C)c(O)c1 (single isomer, unassigned; (+)) [Compound E, (+)-5-(1,1-Dimethyl-hept-6-ynyl)-2-(4,6,6-trimethyl-bicyclo[3.1.1]hept-3-en-2-yl)-benzene-1,3-diol] | 7.59 | 33 | 9.11 | 
2 | CC(C(=O)O)c1cccc(C(=O)c2ccccc2)c1 (stereo not drawn) [Ketoprofen, reference compound] |  |  |  | ΔForce (tactile stimulus) (Male Sprague Dawley rats): 7 g; ΔLT (thermal stimulus) (Male Sprague Dawley rats): 0 s
3 | CC(C)(c1ccc(Cl)cc1)c1cc(O)c(C2CC(=O)C3CC2C3(C)C)c(O)c1 (single isomer, unassigned; (-)) [Compound J, (−)-4-{4-[1-(4-Chloro-phenyl)-1-methyl-ethyl]-2,6-dihydroxy-phenyl]-6,6-dimethyl-bicyclo[3.1.1]heptan-2-one] | 6.18 | 60 | 7.96 | 
4 | O=C(O)Cc1ccccc1Nc1c(Cl)cccc1Cl [Diclofenac, reference compound] |  |  |  | ΔForce (tactile stimulus) (Male Sprague Dawley rats): 2 g; ΔLT (thermal stimulus) (Male Sprague Dawley rats): 0 s
5 | Cc1c(C(=O)NN2CCCCC2)nn(-c2ccc(Cl)cc2Cl)c1-c1ccc(Cl)cc1 [SR141716A, reference compound] |  |  |  | analgesic activity of the antagonists by themselves (Male Sprague Dawley rats): no analgesic activity
6 | CCC(C)(CC)c1cc(O)c(C2CC(=O)C3CC2C3(C)C)c(O)c1 (single isomer, unassigned; (-)) [Compound M, (−)-4-[4-(1-Ethyl-1-methyl-propyl)-2,6-dihydroxy-phenyl]-6,6-dimethyl-bicyclo[3.1.1]heptan-2-one] | 5.41 | 96 | 7.39 | 
7 | CCCCC(C)(C)c1cc(O)c(C2C=C(COC(=O)C(C)(C)C)[C@H]3C[C@@H]2C3(C)C)c(O)c1 (stereo partly drawn) [Compound AH, 2,2-dimethylpropionic Acid-4-{4-[1,1-Dimethyl-pentyl]-2,6-dihydroxy-phenyl}-6,6-dimethyl-bicyclo[3.1.1]hept-2-en-2-yl Methyl Ester] | 6.40 | 9.5 | 7.38 | 
8 | C#CCCCCC(C)(C)c1cc(O)c([C@H]2CC(=O)[C@H]3C[C@@H]2C3(C)C)c(O)c1 [Compound F] | 7.89 | 38 | 9.46 | 
9 | Cc1ccc(-c2cc(C(F)(F)F)nn2-c2ccc(S(N)(=O)=O)cc2)cc1 [Celecoxib, reference compound] |  |  |  | reduction in paw thickness (Female Balb/c mice; 0.1 mg/kg): 7%; reduction in paw thickness (Female Balb/c mice; 0.25 mg/kg): 16%; reduction in paw thickness (Female Balb/c mice; 0.5 mg/kg): 24%; ΔLT (thermal stimulus) (Male Sprague Dawley rats): 0 s
10 | SR144528 [reference compound] |  |  |  | analgesic activity of the antagonists by themselves (Male Sprague Dawley rats): no analgesic activity
11 | CC(C)(CCc1ccccc1)c1cc(O)c(C2CC(=O)C3CC2C3(C)C)c(O)c1 (stereo not drawn) [Compound G, 4-[4-(1,1-Dimethyl-3-phenyl-propyl)-2,6-dihydroxy-phenyl]-6,6-dimethyl-bicyclo[3.1.1]heptan-2-one] | 6.25 | 85 | 8.18 | 
12 | CCCCCCC(C)(C)c1cc(O)c([C@@H]2CC(=O)C3CC2C3(C)C)c(O)c1 (single isomer, unassigned; (+)) [(+) enantiomer of compound A, reference compound] |  | 10 |  | latency time (ICR male mice; 4 mg/kg i.p., thirty minutes): 2.4 s
13 | CCCCCCC(C)(C)c1cc(O)c(C2CC(=O)[C@H]3C[C@@H]2C3(C)C)c(OC(=O)/C=C/C(=O)O)c1 (single isomer, unassigned; (-)) [Compound Z, (−)-4-{4-[1,1-Dimethyl-heptyl]-2-fumarate-6-hydroxy-phenyl}-6,6-dimethyl-bicyclo[3.1.1]heptan-2-one] | 6.09 | 656 | 8.92 | % animals showing increased analgesia (ICR male mice; [1]): about 60%; latency time (ICR male mice; [1]): 5.2 s; ΔForce (tactile stimulus) (Male Sprague Dawley rats): 2 g
14 | CC1=CC(c2c(O)cc(-c3ccc(C(C)(C)C)cc3)cc2O)C2CC1C2(C)C (stereo not drawn) [Compound Q, 5-(1,1-Dimethyl-ethyl-phenyl)-2-(4,6,6-trimethyl-bicyclo[3.1.1]hept-3-en-2-yl)-benzene-1,3-diol] | 6.19 | 53 | 7.92 | 
